Values joined by “and” are separate entries in the source; they are usually repeats but may differ in a detail not shown here. Equal entries are not always repeated.
Assays:
rat liver cells = test: Trypan Blue viability of the single cell suspension, liver; type: in vivo; conditions: liver, 5 days, individual animals
rat lung cells = test: Comet assay, conventional (no FPG), lung; conditions: for Hedgehogs/100 cells (mean ± SD) / TI (%) (mean ± SD) / TI (%), mean of medians from 2 slides: lung, no FPG, 5 days; for TI (%), mean of medians from 2 slides: individual animals
Description: Animals were anesthetized by 3.5% isoflurane (approximately 3 min, evaporator Dräger Vapor 19.3) and then killed by cervical dislocation. The liver was removed and its left lateral lobe used for the Comet assay. The remainder of the liver was washed in saline and then in two aliquots shock frozen in liquid nitrogen and stored at − 80 °C for later examinations. Subsequently the lung was removed from the dead animal. Its left lobe was used for the Comet assay and the remainder treated as described above for the liver. Thereafter the femora were removed for the preparation of the bone marrow.
The Comet assay was performed under alkaline conditions according to the principles described by Singh et al. ([1988]) and Tice et al. ([2000]).
Liver and lung cells were obtained essentially as described by Hartmann et al. ([2004]) and by the Japanese Center for the Validation of Alternative Methods (JaCVAM [2009]). Single cells were obtained within 1 h after killing of the animals in order to minimize DNA damage during the preparation.
The organ parts (see above) were washed in mincing buffer (50 mM EDTA in HBSS [without Ca^2+ and Mg^2+] pH 7.5: DMSO 9:1 (v/v), the latter added shortly before use, stored at 4 °C), cut into 1 to 2-mm pieces in ice-cold mincing buffer and transferred to a cell sieve with 70-µm pores. The viability of the cell suspension was evaluated by the Trypan Blue Assay (Strober [2001]).
100 µL of the obtained cell suspension was mixed at 37 °C with 900 µL Low Melting Agarose (LMA) (0.7% agarose in phosphate-buffered saline [PBS] [Biochrom, Berlin, Germany] without Ca^2+ and Mg^2+). 100 µL of this mixture was transferred to a slide, which had been coated with Normal Melting Agarose (NMA) (0.6% agarose in PBS without Ca^2+ and Mg^2+). The slides were protected with a cover slip and the agarose was hardened at approximately 4 °C. The cover slips were then removed and the slides put over night at 4 °C into lysis buffer (2.5 M NaCl, 125 mM NaOH, 127 mM EDTA, 10 mM Tris/NaOH, pH 10; 1% Triton X-100 and 10% DMSO (v/v), the latter two added before use) in order to lyse the cell membrane, nuclear membrane and remove the histone.
The then following procedures were performed in a shaded room to minimize UV-mediated DNA damage during the procedures.
Remaining lysis buffer or FPG buffer was removed by immersing/washing the slides in PBS (without Ca^2+ and Mg^2+).
The slides were then placed into the electrophoresis chamber, which was cooled and protected from light. Slides were covered with electrophoresis buffer (0.3 M NaOH, 1 mM EDTA, pH > 13) carefully avoiding air bubbles. The DNA was allowed to unwind (20 min). Thereafter the electrophoresis was started (25 V, 300 mA, […], 30 min). The slides were then washed (2 times 5 min) in neutralization buffer (0.4 M Tris/HCl, pH 7.5), dehydrated and fixed in 100% ethanol (1 min), dried at room temperature overnight and stored at room temperature protected from dust.
Quantitative evaluation of the Comet assays was performed by fluorescence microscopy after DNA staining with ethidium bromide.

[1] = test system: polychromatic erythrocytes of rat bone marrow; test: Micronucleus test in rat bone marrow (OECD 474); conditions: for MN/ 1000 PCE Mean ± SD / MN/ 1000 PCE Range / PCE/1000 Erythrozyten Mean ± SD / PCE/NCE quotient (%): 5 days
Description: 13-mm filter disks with a pore size of 8 µm were placed on the bottom of 5-mL plastic syringes. Approximately 500 mg of a mixture consisting of equal parts microcrystalline cellulose (Sigmacell®, Typ 50) and alpha-cellulose fibers was added up to the 2-mL mark.
Bone marrow preparation was performed according to published methods (Romagna and Staniforth [1989]; Salamone et al. [1980]). The soft tissue was removed from the femora and the epiphyses were cut off. The bone marrow was rinsed off the diaphyses with approximately 3 mL 37 °C-warm fetal calf serum (FCS) (Biochrom, Berlin, Germany) per femur, placed on the above-described cellulose column and eluted with 3 mL of Hank's Balanced Salt Solution (HBSS) (Biochrom, Berlin, Germany) (with Ca^2+ und Mg^2+). The eluate was centrifuged at 300 g for 5 min and the pellet was suspended in […] FCS. From this suspension three portions per femur were individually placed on slides, air-dried and then stained for 4 min in May-Grunwald solution 1 (Merck, Darmstadt, Germany), followed by 4 min in May–Grunwald solution 2 (May-Grunwald solution 1 diluted 1:1 with aqua bidest.), rinsed in aqua bidest and then stained with Giemsa solution (7.5% dilution derived from Giemsa obtained from Merck, Darmstadt, Germany) for 15 min. Subsequently, the slides were washed twice with aqua bidest, then dried, cleared in xylene and covered with Corbit-Balsam (I. Hecht, Kiel-Hasse, Germany).
2000 polychromatic erythrocytes (PCE) per animal (1000 per slide) were evaluated at 1000-fold magnification under immersion oil for the presence/absence of large and small micronuclei as well as the proportion of PCE among the total erythrocytes. Statistical significance of differences between treated versus untreated groups was evaluated by the one-sided Wilcoxon test (using the program MUKERN). The result is regarded as positive when the following criteria are fulfilled: 1.
2000 PCEs were analyzed for micronuclei per animal.

## C=CN1CCCC1=O [NVP, N-vinylpyrrolidone]
Rat liver cells; female, no FPG, 10 ppm inhalation
  Individual viability (%): 94%
Rat liver cells; male, Comet with FPG (Table 8), 10 ppm inhalation
  Individual viability (%): 93%
Rat liver cells; male, no FPG, 5 ppm inhalation
  Individual viability (%): 90%
Rat liver cells; male, no FPG, 10 ppm inhalation
  Individual viability (%): 94%
Rat lung cells; NVP-treated lung cells, with or without FPG
  Hedgehogs: 1–7%
Rat lung cells; female, 5 ppm inhalation
  Hedgehogs/100 cells (mean ± SD): 2 ± 1 /100 cells
  TI (%) (mean ± SD): 1.2 ± 0.34%
  TI (%), mean of medians from 2 slides: 0.7% and 1.2% and 1.5% and 1.6% and 1.3%
Rat lung cells; female, 10 ppm inhalation
  Hedgehogs/100 cells (mean ± SD): 2 ± 2 /100 cells
  TI (%), mean of medians from 2 slides: 0.4% and 0.9% and 0.5% and 0.6%
Rat lung cells; female, 20 ppm inhalation
  Hedgehogs/100 cells (mean ± SD): 2 ± 3 /100 cells
  TI (%) (mean ± SD): 1.0 ± 0.32%
  TI (%), mean of medians from 2 slides: 0.7% and 0.9% and 1.2% and 1.0% and 1.6%
Rat lung cells; male, 5 ppm inhalation
  Hedgehogs/100 cells (mean ± SD): 4 ± 3 /100 cells
  TI (%), mean of medians from 2 slides: 1.8% and 0.6% and 0.7% and 0.8% and 1.9%
Rat lung cells; male, 10 ppm inhalation
  Hedgehogs/100 cells (mean ± SD): 7 ± 5 /100 cells
  TI (%) (mean ± SD): 1.8 ± 1.94%
  TI (%), mean of medians from 2 slides: 5.7% and 1.3% and 1.2% and 0.7% and 1.0% and 1.1%
Rat lung cells; male, 20 ppm inhalation
  Hedgehogs/100 cells (mean ± SD): 3 ± 1 /100 cells
  TI (%) (mean ± SD): 0.6 ± 0.28%
  TI (%), mean of medians from 2 slides: 0.4% and 0.9% and 0.6% and 0.3%
[1]; 5, 10, 20 ppm, male and female rats
  Mean number of micronuclei in PCE, range over groups: 1.4 to 2.9 ‰
[1]; 5 ppm inhalation, female
  MN/ 1000 PCE Mean ± SD: 1.4 ± 0.7 MN/ 1000 PCE
  MN/ 1000 PCE Range: 0.5–2.5 MN/ 1000 PCE
  PCE/1000 Erythrozyten Mean ± SD: 629 ± 18 PCE/1000 Erythrozyten
  PCE/NCE quotient (%): 99%
[1]; 5 ppm inhalation, male
  MN/ 1000 PCE Mean ± SD: 2.6 ± 0.9 MN/ 1000 PCE
  MN/ 1000 PCE Range: 1.5–4.0 MN/ 1000 PCE
  PCE/1000 Erythrozyten Mean ± SD: 609 ± 40 PCE/1000 Erythrozyten
  PCE/NCE quotient (%): 100%
[1]; 5 ppm, 10 ppm or 20 ppm
  Increase in micronuclei in the PCE: no significant increase
[1]; 10 ppm inhalation, female
  MN/ 1000 PCE Mean ± SD: 1.7 ± 1.0 MN/ 1000 PCE
  MN/ 1000 PCE Range: 0.5–3.0 MN/ 1000 PCE
  PCE/1000 Erythrozyten Mean ± SD: 612 ± 44 PCE/1000 Erythrozyten
  PCE/NCE quotient (%): 96%
[1]; 10 ppm inhalation, male
  MN/ 1000 PCE Mean ± SD: 2.9 ± 1.9 MN/ 1000 PCE
  MN/ 1000 PCE Range: 1.5–6.5 MN/ 1000 PCE

Source: article PMC8536644, “Enigmatic mechanism of the N-vinylpyrrolidone hepatocarcinogenicity in the rat” (Archives of Toxicology, 2021)
